Data on twelve molecules can be found in patent US7943637B2, “Thienopyridine derivatives and the use thereof as HSP90 modulators” (Merck Patent GmbH, priority 2005, dated 2011).

Structures are written as SMILES.

The target in this experiment is T1, Recombinant human HSP90α (Homo sapiens, UniProt P07900).
T1 construct: host or cells: E. coli
In words: HSP90 radioligand filter binding test, competition with [3H]17AAG. The settings on record: [3H]17AAG 0.08 μM; HSP90 1.5 μg/assay; 22° C., 30 min; read-out: HSP90 inhibition IC50. From the text: The binding of geldanamycin or 17-allylamino-17-demethoxygeldanamycin (17AAG) to HSP90 and competitive inhibition thereof can be utilised in order to determine the inhibitory activity of the compounds according to the invention (Carreras et al. 2003, Chiosis et al. 2002).
In the specific case, a radioligand filter binding test is used. The radioligand used here is tritium-labelled 17-allylaminogeldanamycin, [3H]17AAG. This filter binding test allows a targeted search for inhibitors which interfere with the ATP binding site.
• Recombinant human HSP90α (E. coli expressed, 95% purity); • [3H]17AAG (17-allylaminogeldanamycin, [allylamino-2,3-^3H. Specific activity: 1.11×10^12 Bq/mmol (Moravek, MT-1717); • HEPES filter buffer (50 mM HEPES, pH 7.0, 5 mM MgCl2, BSA 0.01%) Multiscreen FB (1 μm) filter plate (Millipore, MAFBNOB 50). Method
The 96-well microtitre filter plates are firstly irrigated and coated with 0.1% of polyethylenimine.
The test is carried out under the following conditions: • Reaction temperature 22° C. • Reaction time: 30 min., shaking at 800 rpm • Test volume: 50 μl • Final concentrations: • 50 mM HEPES HCl, pH 7.0, 5 mM MgCl2, 0.01% (w/v) BSA • HSP90:1.5 μg/assay • [3H]17AAG: 0.08 μM.
At the end of the reaction, the supernatant in the filter plate is removed by suction with the aid of a vacuum manifold (Multiscreen Separation System, Millipore), and the filter is washed twice.
The filter plates are then measured in a beta counter (Microbeta, Wallac) with scintillator (Microscint 20, Packard).
“% of control” is determined from the “counts per minutes” values and the IC-50 value of a compound is calculated therefrom.
As for `COc1ccc(-c2c(C#N)c(N)nc3sc(C(N)=O)c(N)c23)cc1OCc1ccc(C(=O)O)cc1` [Compound A689], the IC50 was 0.74 µM. With `CCOC(=O)CCCCOc1cc(-c2c(C#N)c(N)nc3sc(C(N)=O)c(N)c23)ccc1OC` [Compound A7, 2-aminocarbonyl-3,6-diamino-5-cyano-4-[3-(4-ethoxycarbonylbutoxy)-4-methoxyphenyl]thieno[2,3-b]pyridine] the figure was 1.5 µM. With `CCOC(=O)CCCOc1cc(-c2c(C#N)c(N)nc3sc(C(N)=O)c(N)c23)ccc1OC` [Compound A7c, 2-aminocarbonyl-3,6-diamino-5-cyano-4-[3-(3-ethoxycarbonylpropoxy)-4-methoxyphenyl]thieno[2,3-b]pyridine], the IC50 was 1.3 µM. Regarding `COc1ccc(-c2c(C#N)c(N)nc3sc(C(N)=O)c(N)c23)cc1OCc1cccc(OC(F)F)c1` [Compound A693], the IC50 was 0.67 µM. With `CCOC(=O)c1sc2nc(N)c(C#N)c(-c3ccc(OC)c(OC)c3)c2c1N` [Compound A9, 2-ethoxycarbonyl-3,6-diamino-5-cyano-4-(3,4-dimethoxyphenyl)thieno[2,3-b]pyridine], the IC50 was found to be 14 µM. Regarding `COc1ccc(-c2c(C#N)c(N)nc3sc(C(N)=O)c(N)c23)cc1OCCCCCC(=O)O` [Compound A7b, 2-aminocarbonyl-3,6-diamino-5-cyano-4-[3-(5-carboxypentyloxy)-4-methoxyphenyl]thieno[2,3-b]pyridine], the IC50 came to 0.89 µM. Turning to `COc1ccc(-c2c(C#N)c(N)nc3sc(C(N)=O)c(N)c23)cc1OCC(N)=O` [Compound A30], the IC50 was 3.3 µM.

On to `COc1ccc(-c2c(C#N)c(N)nc3sc(C(N)=O)c(N)c23)cc1OC` [Compound A1, 2-aminocarbonyl-3,6-diamino-5-cyano-4-(3,4-dimethoxyphenyl)thieno[2,3-b]pyridine], for which the IC50 is 1 µM. With `COc1ccc(-c2c(C#N)c(N)nc3sc(C(N)=O)c(N)c23)cc1OCc1cccc(C(F)(F)F)c1` [Compound A21] the figure was 0.78 µM. Take `CCOC(=O)CCCCCOc1cc(-c2c(C#N)c(N)nc3sc(C(N)=O)c(N)c23)ccc1OC` [Compound A4, 2-aminocarbonyl-3,6-diamino-5-cyano-4-[3-(5-ethoxycarbonylpentyloxy)-4-methoxyphenyl]thieno[2,3-b]pyridine]: the IC50 was 2.5 µM. Under `COc1ccc(-c2c(C#N)c(N)nc3sc(C(N)=O)c(N)c23)cc1OCc1ccccc1C` [Compound A11] stands 1.4 µM; under `COc1ccc(-c2c(C#N)c(N)nc3sc(C(N)=O)c(N)c23)cc1OCCCCC(=O)O` [Compound A7a, 2-aminocarbonyl-3,6-diamino-5-cyano-4-[3-(4-carboxybutoxy)-4-methoxyphenyl]thieno[2,3-b]pyridine], 0.65 µM.
